“Also recorded” adds a separate entry of the source.
Columns and labels:
[1] = tested on: phosphorylated SR proteins in HMEC-1 cells; test: SR protein phosphorylation, western blotting; type: cell-based, human
Protocol: Western blot analysis of samples from cell lysates of inhibited, stimulated, and unstimulated HMEC-1 cells were performed as previously described ([Szotowski et al., 2005]). For detection of phosphorylated SR proteins, monoclonal antibody mAb1H4 (Invitrogen GmbH, Karlsruhe, Germany) was used.

[2] = tested on: flTF and asHTF mRNA in HMEC-1 cells; test: TF isoform mRNA expression (RT-PCR)
Protocol: For inhibition experiments, HMEC-1 endothelial cells were switched to EC basal medium (without fetal calf serum) for 1 hr. […] Analysis of the TF isoform mRNA expression was done 1 hr post stimulation with TNF-α and assessment of the phosphorylation state of SR proteins by western blotting was performed 2 min post induction of the cells. Positive controls were stimulated only with TNF-α, and negative controls were untreated.

[3] = target: T1, CLK1 (Homo sapiens, UniProt P49759); test: Coupled-enzyme (PK/LDH) kinase inhibition assay; type: biochemical; conditions: 0.1 mM ATP, 25°C; average from three independent experiments
T1 construct: the kinase domains of human CLK1 (residues: 148–484 (C terminus)); hexahistidine tag (TEV-cleavable) (cleaved yes); made in house; host or cells: E. coli BL21(DE3)
Protocol: The consensus peptide for CLK1 ([…]) and the DYRK1A substrate peptide ([…]-amide) were used as substrates at a concentration of 100 μM. Inhibitors, dissolved in DMSO, were added at the beginning of the preincubation period resulting in a final DMSO concentration of 2% in the assay. Kinetic analysis was performed by nonlinear regression fitting using GraphPad Prism 5 and least-squares fits to sigmoidal dose response curves with variable slope equation: Y=min+max−min/1+10^(logEC50−x)Hillslope, where max and min corresponds to maximal and minimal absorbance value.

T1 sequence (P49759 148-484): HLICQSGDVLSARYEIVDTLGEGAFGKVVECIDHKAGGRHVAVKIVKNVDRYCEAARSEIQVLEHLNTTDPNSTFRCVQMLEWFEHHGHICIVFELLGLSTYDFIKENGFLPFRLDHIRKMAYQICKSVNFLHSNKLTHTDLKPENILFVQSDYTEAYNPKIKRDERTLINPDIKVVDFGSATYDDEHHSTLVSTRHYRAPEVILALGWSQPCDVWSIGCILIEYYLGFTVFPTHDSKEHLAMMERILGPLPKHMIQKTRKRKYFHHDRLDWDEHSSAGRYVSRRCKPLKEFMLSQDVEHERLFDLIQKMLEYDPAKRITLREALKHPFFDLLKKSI

## CCN1/C(=C/C(C)=O)Sc2ccc(OC)cc21 [TG003]
[1]; HMEC-1, 10 μM inhibitor pretreatment, 10 ng/ml TNF-α, 2 min post stimulation
  TNF-α-induced phosphorylation of SR proteins: reduction of the TNF-α-induced increase in phosphorylation of all analyzed SR proteins
[1]; HMEC-1, 10 μM inhibitor, basal conditions
  Phosphorylation state of SR proteins, nonstimulated cells: only reduced the phosphorylation of SRp20; also recorded: no effect on the phosphorylation state of other SR proteins
[1]; TNF-α-stimulated HMEC-1, increasing inhibitor concentration
  Dose response of SRp75 and SRp55 phosphorylation: little effect on SRp75 and SRp55 phosphorylation
[2]; HMEC-1, 10 μM inhibitor, 10 ng/ml TNF-α, 1 hr post stimulation
  TNF-α-induced mRNA expression of flTF and asHTF: only slightly reduced mRNA expression in TNF-α-induced cells
[2]; resting HMEC-1, 10 μM inhibitor
  Basal mRNA expression of flTF and asHTF: reduced the basal expression of flTF and asHTF mRNA

## Nc1nc(Nc2ccc(S(N)(=O)=O)cc2)nn1C(=S)Nc1c(F)cccc1F [K00546]
[3]
  IC50: 8.9 ± 3 nM

— PMC3145970, “Specific CLK Inhibitors from a Novel Chemotype for Regulation of Alternative Splicing” (Chemistry & Biology, 2011)
